Reference: ChEMBL document CHEMBL4842323, “Aromatic Polyketides and Hydroxamate Siderophores from a Marine-Algae-Derived Streptomyces Species” (J Nat Prod, 2021)
Structures can show the parent of a compound that is named as a salt. Calls of active or inactive are those of the source. The rule behind the calls is not given here.

Assays:
Nakaseomyces glabratus = test: Antifungal activity against Candida glabrata ATCC2001 assessed as inhibition of fungal growth incubated for 12 hrs by agar dilution method; type: functional, organism-based
[1] = Binding affinity to Fe3+ assessed as compound-Fe3+ complex formation incubated for 3 hrs by Chrome Azurol S assay
Staphylococcus aureus [2] = test: Antibacterial activity against Staphylococcus aureus ATCC6538 assessed as inhibition of bacterial growth incubated for 12 hrs by agar dilution method; type: functional, organism-based
Pseudomonas aeruginosa = test: Antibacterial activity against Pseudomonas aeruginosa ATCC10145 assessed as inhibition of bacterial growth incubated for 12 hrs by agar dilution method; type: functional, organism-based
Staphylococcus aureus [3] = test: Antibacterial activity against methicillin-resistant Staphylococcus aureus subsp. aureus ATCC43300 assessed as inhibition of bacterial growth incubated for 12 hrs by agar dilution method; type: functional, organism-based
Candida albicans = test: Antifungal activity against Candida albicans ATCC10231 assessed as inhibition of fungal growth incubated for 12 hrs by agar dilution method; type: functional, organism-based
Escherichia coli = test: Antibacterial activity against Escherichia coli ATCC11775 assessed as inhibition of bacterial growth incubated for 12 hrs by agar dilution method; type: functional, organism-based
B16 = test: Cytotoxicity against mouse B16 cells assessed as reduction in cell viability incubated for 72 hrs by MTT assay; type: functional, cell-based

| SMILES | Activity (Nakaseomyces glabratus) | EC50 [1] [µM] | Activity (Staphylococcus aureus [2]) | Activity (Pseudomonas aeruginosa) | Activity (Staphylococcus aureus [3]) | Activity (Candida albicans) | Activity (Escherichia coli) | Activity (B16) |
| --- | --- | --- | --- | --- | --- | --- | --- | --- |
| CC(=O)N(O)CCCCCNC(=O)CCC(=O)N(O)CCCCCNC(=O)CCc1ccccc1 | inactive | 12.9 | inactive | inactive | inactive | inactive | inactive | inactive |
| COc1cc([C@@H]2c3cccc(O)c3C(=O)C[C@@]2(O)Cc2ccccc2)oc(=O)c1 | inactive | – | inactive | inactive | inactive | inactive | inactive | inactive |
| COc1cc(Cc2cccc(O)c2)oc(=O)c1 | inactive | – | inactive | inactive | inactive | inactive | inactive | inactive |
| COc1cc(Cc2cccc(O)c2C(=O)c2ccccc2)oc(=O)c1 | inactive | – | inactive | inactive | inactive | inactive | inactive | inactive |
| CC(=O)N(O)CCCCCNC(=O)CCC(=O)N(O)CCCCCNC(=O)/C=C/c1ccccc1 | inactive | 39.1 | inactive | inactive | inactive | inactive | inactive | inactive |
| O=C1CCC(=O)N(O)CCCCCNC(=O)CCC(=O)N(O)CCCCCNC(=O)CCC(=O)N(O)CCCCCN1 [NOCARDAMINE] | inactive | 22.4 | inactive | inactive | inactive | inactive | inactive | inactive |
| CC(=O)N(O)CCCCCNC(=O)CCC(=O)N(O)CCCCCNC(=O)CCC(=O)N(O)CCCCCN [DEFEROXAMINE MESYLATE] | – | 20.2 | – | – | – | – | – | – |
| COc1cc(-c2c(O)cccc2-c2ccccc2)oc(=O)c1 | inactive | – | inactive | inactive | inactive | inactive | inactive | inactive |
